# Test results: patent US20200405697A1, “Antitumor Agent” (Taiho Pharmaceutical Co., Ltd, priority 2017, published 2020)
# System: A549 (Human lung cancer cell line)
# Assay: Effect of combination of sulfonamide compound and other antitumor agent (CellTiter-Glo, combination index): A549
# [1] = Table 36: Example Compound 1 345 nM + Prexasertib 1.98 nM, molar ratio 1:0.005730
# [2] = Table 36: Example Compound 1 345 nM + SCH900776 910 nM, molar ratio 1:2.639
# [3] = Table 36: Example Compound 1 517 nM + AZD6738 1037 nM, molar ratio 1:2.005
# [4] = Table 36: Example Compound 1 517 nM + Fludarabine nucleoside 5910 nM, molar ratio 1:11.44
# [5] = Table 36: Example Compound 1 517 nM + Prexasertib 2.96 nM, molar ratio 1:0.005730
# [6] = Table 36: Example Compound 1 517 nM + SCH900776 1360 nM, molar ratio 1:2.639
# [7] = Table 36: Example Compound 1 775 nM + AZD6738 1554 nM, molar ratio 1:2.005
# [8] = Table 36: Example Compound 1 775 nM + Decitabine 1340 nM, molar ratio 1:1.733
# [9] = Table 36: Example Compound 1 775 nM + Fludarabine nucleoside 8870 nM, molar ratio 1:11.44
# [10] = Table 36: Example Compound 1 775 nM + Guadecitabine 469 nM, molar ratio 1:0.6048
# [11] = Table 36: Example Compound 1 775 nM + Prexasertib 4.44 nM, molar ratio 1:0.005730
# [12] = Table 36: Example Compound 1 775 nM + SCH900776 2050 nM, molar ratio 1:2.639
# [13] = Table 36: Example Compound 1 1160 nM + AZD6738 2326 nM, molar ratio 1:2.005
# [14] = Table 36: Example Compound 1 1160 nM + Cytarabine 110 nM, molar ratio 1:0.09524
# [15] = Table 36: Example Compound 1 1160 nM + Decitabine 2010 nM, molar ratio 1:1.733
# [16] = Table 36: Example Compound 1 1160 nM + Fludarabine nucleoside 13300 nM, molar ratio 1:11.44
# [17] = Table 36: Example Compound 1 1160 nM + Gemcitabine 5.58 nM, molar ratio 1:0.004813
# [18] = Table 36: Example Compound 1 1160 nM + Guadecitabine 702 nM, molar ratio 1:0.6048
# [19] = Table 36: Example Compound 1 1160 nM + SCH900776 3060 nM, molar ratio 1:2.639
# [20] = Table 36: Example Compound 1 1160 nM + Sunitinib 1870 nM, molar ratio 1:1.608
# [21] = Table 36: Example Compound 1 1160 nM + Trifluridine 430 nM, molar ratio 1:0.3703
# [22] = Table 36: Example Compound 1 1740 nM + 5-Fluorouracil 4300 nM, molar ratio 1:2.469
# [23] = Table 36: Example Compound 1 1740 nM + Azacytidine 4080 nM, molar ratio 1:2.344
# [24] = Table 36: Example Compound 1 1740 nM + Cabozantinib 5990 nM, molar ratio 1:3.443
# [25] = Table 36: Example Compound 1 1740 nM + Cytarabine 166 nM, molar ratio 1:0.09524
# [26] = Table 36: Example Compound 1 1740 nM + Decitabine 3020 nM, molar ratio 1:1.733
# [27] = Table 36: Example Compound 1 1740 nM + Etoposide 3780 nM, molar ratio 1:2.174
# [28] = Table 36: Example Compound 1 1740 nM + Fludarabine nucleoside 19900 nM, molar ratio 1:11.44
# [29] = Table 36: Example Compound 1 1740 nM + Gemcitabine 8.37 nM, molar ratio 1:0.004813
# [30] = Table 36: Example Compound 1 1740 nM + Guadecitabine 1050 nM, molar ratio 1:0.6048
# [31] = Table 36: Example Compound 1 1740 nM + Lapatinib 5990 nM, molar ratio 1:3.443
# [32] = Table 36: Example Compound 1 1740 nM + Luminespib 13.5 nM, molar ratio 1:0.007735
# [33] = Table 36: Example Compound 1 1740 nM + Midostaurin 250 nM, molar ratio 1:0.1438
# [34] = Table 36: Example Compound 1 1740 nM + Olaparib 14800 nM, molar ratio 1:8.494
# [35] = Table 36: Example Compound 1 1740 nM + Oxaliplatin 1060 nM, molar ratio 1:0.6082
# [36] = Table 36: Example Compound 1 1740 nM + SCH900776 4590 nM, molar ratio 1:2.639
# [37] = Table 36: Example Compound 1 1740 nM + Sunitinib 2800 nM, molar ratio 1:1.608
# [38] = Table 36: Example Compound 1 1740 nM + Talazoparib 7980 nM, molar ratio 1:4.587
# [39] = Table 36: Example Compound 1 1740 nM + Trifluridine 644 nM, molar ratio 1:0.3703
# [40] = Table 36: Example Compound 1 2620 nM + Carboplatin 79500 nM, molar ratio 1:30.35
# [41] = Table 36: Example Compound 1 2620 nM + Cisplatin 3610 nM, molar ratio 1:3.669
# [42] = Table 36: Example Compound 1 2620 nM + Trifluridine 970 nM, molar ratio 1:0.3703
# [43] = Table 36: Example Compound 1 3920 nM + Carboplatin 119000 nM, molar ratio 1:30.35
# [44] = Table 36: Example Compound 1 3920 nM + Cisplatin 14400 nM, molar ratio 1:3.669
# [45] = Table 36: Example Compound 1 5890 nM + Carboplatin 179000 nM, molar ratio 1:30.35
# [46] = Table 36: Example Compound 1 8830 nM + Carboplatin 268000 nM, molar ratio 1:30.35
structure (smiles),measurement,setting,value
"Cc1ccc(F)c([C@@H](C)[C@H](NS(=O)(=O)c2ccc(Br)cc2C(N)=O)c2n[nH]c(=O)o2)c1C [Example 1, 5-bromo-2-(N-((1 S,2R)-2-(6-fluoro-2,3-dimethylphenyl)-1-(5-oxo-4,5-dihydro-1,3,4-oxadiazol-2-yl)propyl)sulfamoyl)benzamide]",CI value,[1],0.363
same,Fa value,[1],0.4283
same,CI value,[2],0.287
same,Fa value,[2],0.5875
same,CI value,[3],0.486
same,Fa value,[3],0.5213
same,CI value,[4],0.818
same,Fa value,[4],0.1823
same,CI value,[5],0.207
same,Fa value,[5],0.7673
same,CI value,[6],0.250
same,Fa value,[6],0.7191
same,CI value,[7],0.318
same,Fa value,[7],0.7989
same,CI value,[8],0.528
same,Fa value,[8],0.3618
same,CI value,[9],0.559
same,Fa value,[9],0.5070
same,CI value,[10],0.558
same,Fa value,[10],0.3478
same,CI value,[11],0.174
same,Fa value,[11],0.8934
same,CI value,[12],0.210
same,Fa value,[12],0.8457
same,CI value,[13],0.309
same,Fa value,[13],0.8880
same,CI value,[14],0.842
same,Fa value,[14],0.4712
same,CI value,[15],0.573
same,Fa value,[15],0.4748
same,CI value,[16],0.405
same,Fa value,[16],0.8089
same,CI value,[17],0.865
same,Fa value,[17],0.6357
same,CI value,[18],0.627
same,Fa value,[18],0.4476
same,CI value,[19],0.255
same,Fa value,[19],0.8825
same,CI value,[20],0.740
same,Fa value,[20],0.7514
same,CI value,[21],0.842
same,Fa value,[21],0.6401
same,CI value,[22],0.835
same,Fa value,[22],0.7276
same,CI value,[23],0.820
same,Fa value,[23],0.6539
same,CI value,[24],0.688
same,Fa value,[24],0.8307
same,CI value,[25],0.619
same,Fa value,[25],0.7121
same,CI value,[26],0.627
same,Fa value,[26],0.5994
same,CI value,[27],0.631
same,Fa value,[27],0.7574
same,CI value,[28],0.537
same,Fa value,[28],0.8431
same,CI value,[29],0.757
same,Fa value,[29],0.8623
same,CI value,[30],0.640
same,Fa value,[30],0.5997
same,CI value,[31],0.400
same,Fa value,[31],0.8672
same,CI value,[32],0.828
same,Fa value,[32],0.8341
same,CI value,[33],0.624
same,Fa value,[33],0.8366
same,CI value,[34],0.575
same,Fa value,[34],0.7460
same,CI value,[35],0.787
same,Fa value,[35],0.7638
same,CI value,[36],0.411
same,Fa value,[36],0.8708
same,CI value,[37],0.811
same,Fa value,[37],0.8380
same,CI value,[38],0.508
same,Fa value,[38],0.7568
same,CI value,[39],0.696
same,Fa value,[39],0.8343
same,CI value,[40],0.519
same,Fa value,[40],0.8844
same,CI value,[41],0.701
same,Fa value,[41],0.9341
same,CI value,[42],0.744
same,Fa value,[42],0.9017
same,CI value,[43],0.474
same,Fa value,[43],0.9458
same,CI value,[44],0.608
same,Fa value,[44],0.9720
same,CI value,[45],0.627
same,Fa value,[45],0.9560
same,CI value,[46],0.635
same,Fa value,[46],0.9773
